Where two headings read alike, the source gives them in different places.
How the values were obtained:
[1] = 91-d repeated oral toxicity study in dogs (GLP); assay type: in vivo; conditions: both sexes, Beagle, dog, in vivo
dogs = assay: 91-d repeated oral toxicity study in dogs (GLP); assay type: in vivo
CD-1 Swiss male mice = assay: i.v. self-administration of WIN55,212-2 in mice; assay type: in vivo
Procedure: Before the start of the self-administration sessions, mice were implanted under anesthesia with catheters into the right jugular vein. […] Mice were trained under a fixed ratio 1 (FR1) schedule of reinforcement.
Two-hour daily self-administration sessions were conducted 6 d per week for 18 d. Mice received corn oil vehicle (2 ml kg^–1) orally on days 9 and 10 to be habituated to the oral gavage procedure.

mice = assay: THC-induced impairment of pre-pulse inhibition; assay type: in vivo
[2] = SAD study, plasma pharmacokinetics; assay type: in vivo; conditions: human, oral; for Cmax: read-out: Cmax, mean (±SD); for half-life: SAD, evaluated 0-144 h, underestimated, read-out: t½, min-max
Procedure: For both SAD and MAD studies, the PK parameters were calculated using standard non-compartmental methods for those with sufficient plasma concentration data.

healthy volunteers = assay type: in vivo, human; conditions: MAD
Procedure: Participants were admitted to the research clinic at midday before dosing (day −1). In the SAD study, they remained in-house until day 8 for PK and PD samples and safety assessments. In the MAD study, participants remained in-house until day 14 and returned to the research facility on an outpatient basis to have PK and safety assessments at 216 h and 264 h (day 16 and day 18) after their last dose (day 7). Safety monitoring (physical examinations, vital sign measurements, 12-lead ECGs, clinical safety laboratory tests and AE monitoring) were performed throughout the studies. Psychometrics tests (Bond & Lader VAS, Addiction Research Center Inventory (49-item short form) (ARCI-49) and Profile of Mood States 65 self-report items (POMS-65)) and the Columbia-Suicide Severity Rating Scale (C-SSRS) test were performed at baseline, before dose and at 4 h and 24 h after dose on day 1 and day 7 (MAD study, only) and C-SSRS only at 24 h.

volunteers with CUD = assay: Phase 2a study, safety; assay type: in vivo, human
Description: Data from the first dose level were reviewed by the Data Safety Monitoring Board before ascending to the next dose level.
On day 6 of each period, before discharge from the research center, participants had sitting blood pressure and pulse rate measurements, clinical laboratory tests (chemistry, hematology and urinalysis) and body weight taken. The study start date was 23 October 2018; primary completion date was 31 July 2020; and actual study completion date was 1 January 2021. After the second study phase, participants were contacted 28 d after discharge so that we could inquire about the occurrence of any serious AEs (including pregnancies) that may have occurred since leaving the research site.

[3] = target: GR (glucocorticoid receptor) (Homo sapiens, UniProt P04150); assay: Eurofins binding screen; conditions: read-out: Percent inhibition of control specific binding
Chain of GR (glucocorticoid receptor) (P04150 whole entry): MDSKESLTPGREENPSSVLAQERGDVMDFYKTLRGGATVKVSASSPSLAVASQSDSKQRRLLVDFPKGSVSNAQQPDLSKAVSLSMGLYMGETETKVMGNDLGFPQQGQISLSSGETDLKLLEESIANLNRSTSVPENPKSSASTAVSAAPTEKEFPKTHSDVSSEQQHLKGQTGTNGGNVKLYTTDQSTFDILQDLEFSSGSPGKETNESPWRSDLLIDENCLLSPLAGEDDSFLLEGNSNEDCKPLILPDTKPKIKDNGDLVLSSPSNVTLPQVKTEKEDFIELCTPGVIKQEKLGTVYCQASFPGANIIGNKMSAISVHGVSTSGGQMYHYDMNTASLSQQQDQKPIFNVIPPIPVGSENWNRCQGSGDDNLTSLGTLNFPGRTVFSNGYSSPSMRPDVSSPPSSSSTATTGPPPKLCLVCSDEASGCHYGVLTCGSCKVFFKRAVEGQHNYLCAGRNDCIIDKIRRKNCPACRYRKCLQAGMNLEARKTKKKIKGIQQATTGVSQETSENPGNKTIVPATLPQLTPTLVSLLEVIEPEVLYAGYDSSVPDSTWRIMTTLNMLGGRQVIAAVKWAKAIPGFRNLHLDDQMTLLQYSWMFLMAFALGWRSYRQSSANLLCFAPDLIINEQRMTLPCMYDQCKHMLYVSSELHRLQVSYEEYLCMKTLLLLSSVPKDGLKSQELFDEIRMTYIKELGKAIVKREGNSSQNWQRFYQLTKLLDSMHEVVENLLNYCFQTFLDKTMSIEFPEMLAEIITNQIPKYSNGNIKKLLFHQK

[4] = end of drug withdrawal period (week 18)
[5] = Self-administration of WIN 55,212-2, mice
[6] = Impairment of pre-pulse inhibition

## COc1ccc(CO[C@H]2CC[C@@]3(C)C(=CC[C@H]4[C@@H]5CC[C@H](C(C)=O)[C@@]5(C)CC[C@@H]43)C2)cc1 [AEF0117, 3β-(4-methoxybenzyloxy)pregn-5-en-20-one]
[1]; 91-d repeated oral
  NOAEL at 91 d: > 65 mg/kg/day
[1]; oral, 91-day, highest dose tested
  NOAEL at 91 day: 65 mg/kg/day
dogs; all dose groups, week 5
  change in eosinophil count: -41%
dogs; all dose groups, week 14
  change in eosinophil count: -54%
  change in lymphocyte count: -17 to -24%
dogs; [4]
  change in eosinophil count: -66%
  change in lymphocyte count: -19%
dogs; end of treatment period
  change in thymus weight vs vehicle: -15 to -24%
CD-1 Swiss male mice; [5]
  % Inhibition: 80%
  ID50: 0.005 mg/kg
  ID100: 0.015 mg/kg
CD-1 Swiss male mice; mice, 15 µg kg^−1 oral
  i.v. self-administration of WIN55,212-2: significantly reduced
mice
  THC impairment in sensory motor gating (PPI): inhibited
mice; [6]
  % Inhibition: 100%
  ID50: 0.0045 mg/kg
  ID100: 0.015 mg/kg
[2]; both sexes, SAD Day 1, 2 mg
  Cmax: 14.7 ± 4.3 ng/mL
[2]; both sexes, SAD Day 1, 2 mg, read-out: tmax, median (range)
  Tmax: 3 h
[2]; both sexes, 0.6 mg
  half-life: 75.9 to 229 h
[2]; healthy volunteers, read-out: Tmax
  Tmax: ~3 h
[2]; SAD Day 1, 0.2 mg
  Cmax: 1.3 ± 0.3 ng/mL
[2]; SAD Day 1, 0.2 mg, read-out: tmax, median (range)
  Tmax: 3 h
[2]; SAD Day 1, 0.6 mg
  Cmax: 3.5 ± 1 ng/mL
[2]; SAD Day 1, 0.6 mg, read-out: tmax, median (range)
  Tmax: 2.5 h
[2]; SAD Day 1, 6 mg
  Cmax: 38.6 ± 8.1 ng/mL
[2]; SAD Day 1, 6 mg, read-out: tmax, median (range)
  Tmax: 2 h
[2]; 2 mg
  half-life: 84.4 to 180 h
[2]; 6 mg
  half-life: 69.3 to 162 h
[2]; healthy volunteers, SAD and MAD, read-out: median tmax
  Tmax: 2 to 3 h
Healthy volunteers; 0.6-6 mg vs placebo
  ARCI 49 sub-scores: No relevant trend
  Bond and Lader VAS (alertness, contentedness, calmness): No relevant differences between groups
Healthy volunteers; 0.6-6 mg vs placebo, except one outlier participant
  POMS 65 derived sub-scores: no dose related trend
Healthy volunteers; all doses 0.6-6 mg, Day 1 and Day 8
  C-SSRS: number of subjects with suicidal ideation or behavior: 0 n (%)
Volunteers with CUD; 0.06 mg/d 5 d
  Number of TEAEs: 9 E
  Number of participants with a TEAE leading to discontinuation: 0 n (%)
  Number of participants with an SAE: 0 n (%)
  Number of participants with at least one TEAE: 6 (42.9) n (%)
  Participants with TEAE: Mild: 6 (42.9) n (%)
  Participants with TEAE: Moderate: 0 n (%)
  Participants with TEAE: Not related: 2 (14.3) n (%)
  Participants with TEAE: Related: 6 (42.9) n (%)
  Participants with TEAE: Severe: 0 n (%)
  TEAEs by SOC: Cardiac disorders: 1 (7.1) n (%)
  TEAEs by SOC: Ear and labyrinth disorders: 0 n (%)
  TEAEs by SOC: Gastrointestinal disorders: 0 n (%)
  TEAEs by SOC: General disorders and administration site conditions: 1 (7.1) n (%)
  TEAEs by SOC: Infections and infestations: 0 n (%)
  TEAEs by SOC: Injury, poisoning and procedural complications: 0 n (%)
  TEAEs by SOC: Investigations: 3 (21.4) n (%)
  TEAEs by SOC: Musculoskeletal and connective tissue disorders: 0 n (%)
  TEAEs by SOC: Nervous system disorders: 3 (21.4) n (%)
  TEAEs by SOC: Psychiatric disorders: 0 n (%)
  TEAEs by SOC: Renal and urinary disorders: 0 n (%)
  TEAEs by SOC: Respiratory, thoracic and mediastinal disorders: 1 (7.1) n (%)
  TEAEs by SOC: Skin and subcutaneous tissue disorders: 0 n (%)
Volunteers with CUD; 1 mg/d 5 d
  Number of TEAEs: 24 E
  Number of participants with a TEAE leading to discontinuation: 1 (6.7) n (%)
  Number of participants with an SAE: 0 n (%)
  Number of participants with at least one TEAE: 8 (53.3) n (%)
  Participants with TEAE: Mild: 8 (53.3) n (%)
  Participants with TEAE: Moderate: 1 (6.7) n (%)
  Participants with TEAE: Not related: 1 (6.7) n (%)
  Participants with TEAE: Related: 8 (53.3) n (%)
  Participants with TEAE: Severe: 1 (6.7) n (%)
  TEAEs by SOC: Cardiac disorders: 0 n (%)
  TEAEs by SOC: Ear and labyrinth disorders: 0 n (%)
  TEAEs by SOC: Gastrointestinal disorders: 4 (26.7) n (%)
  TEAEs by SOC: General disorders and administration site conditions: 0 n (%)
  TEAEs by SOC: Infections and infestations: 0 n (%)
  TEAEs by SOC: Injury, poisoning and procedural complications: 2 (13.3) n (%)
  TEAEs by SOC: Investigations: 2 (13.3) n (%)
  TEAEs by SOC: Musculoskeletal and connective tissue disorders: 2 (13.3) n (%)
  TEAEs by SOC: Nervous system disorders: 3 (20.0) n (%)
  TEAEs by SOC: Psychiatric disorders: 2 (13.3) n (%)
  TEAEs by SOC: Renal and urinary disorders: 0 n (%)
  TEAEs by SOC: Respiratory, thoracic and mediastinal disorders: 0 n (%)
  TEAEs by SOC: Skin and subcutaneous tissue disorders: 1 (6.7) n (%)
[3]
  inhibition at 10 µM: 22%
